What was measured:
Experiment in all cases: microbe, parasite or virus in culture
HIV-1MDR/MM = format: cell-based; conditions: for EC50: Human immunodeficiency virus 1, read-out: EC50 (μM), HIV-1MDR/MM (NSI); for n-fold change of EC50, HIV-1MDR/MM: compared to wild-type HIV-1ERS104pre
Procedure: (§1) The susceptibility of HIV-1LAI and primary HIV-1 isolates to various drugs were determined as described previously (Koh et al. 2003 Antimicrob Agents Chemother 47:3123-9). Briefly, MT-2 cells (2×10^4/ml) were exposed to 100 50% tissue culture infectious doses (TCID50S) of HIV-1LAI, in the presence or absence of various concentrations of drugs in 96-well microculture plates and were incubated at 37° C. for 7 days. After 100 μl of the medium was removed from each well, 3-(4,5-dimetylthiazol-2-yl)-2,5-diphenyltetrazolium bromide (MTT) solution (10 μl, 7.5 mg/ml in phosphate-buffered saline) was added to each well in the plate, followed by incubation at 37° C. for 3 h. […] All assays were performed in duplicate or triplicate. To determine the susceptibility of primary HIV-1 isolates to drugs, phytohemagglutinin-activated peripheral blood mononuclear cells (PHA-PBMCs; 106/ml) were exposed to 50 TCID50S of each. The target cells were exposed to HIV-1104pre or drug-resistant HIV-1 in the presence or absence of various concentrations of drugs and were incubated for 7 days. Upon the conclusion of the culture, the amounts of p24 Gag protein in the supernatants were determined using a fully automated chemiluminescent enzyme immunoassay system (Lumipulse F; Fujirebio Inc., Tokyo, Japan) (Maeda et al. 2001 J Biol Chem 276:35194-200). To determine the drug susceptibility of certain laboratory HIV-1 strains, MT-4 cells were used as target cells. In brief, MT-4 cells (10^5/ml) were exposed to 100 TCID50S of drug-resistant HIV-1 strains in the presence or absence of various concentrations of drugs and on day 7 of culture, the supernatant was harvested and the amounts of p24 Gag protein were determined. […] All assays were performed in duplicate or triplicate.
(§2) These clinical strains contained 9 to 14 amino acid substitutions in the protease-encoding region, which have reportedly been associated with HIV-1 resistance to various PIs.
(§3) Amino acid substitutions identified in the protease-encoding region compared to the consensus type B sequence cited from the Los Alamos database include L63P in HIV-1ERS104pre; L10I, K14R, L33I, M36I, M46I, F53I, K55R, I62V, L63P, A71V, G73S, V82A, L90M, and I93L in HIV-1MDR/B; L10I, I15V, K20R, L24I, M36I, M46L, I54V, I62V, L63P, K70Q, V82A, and L89M in HIV-1MDR/C; L10I, V11I, T12E, I15V, L19I, R41K, M46L, L63P, A71T, V82A, and L90M in HIV-1MDR/G; L10I, K14R, R41K, M46L, I54V, L63P, A71V, V82A, L90M, I93L in HIV-1MDR/TM; L10I, K43T, M46L, I54V, L63P, A71V, V82A, L90M, and Q92K in HIV-1MDR/MM; L10I, L24I, I33F, E35D, M36I, N37S, M46L, I54V, R57K, I62V, L63P, A71V, G73S, and V82A in HIV-1MDR/JSL. HIV-1ERS104pre served as a source of wild-type HIV-1. EC50s were determined by using PHA-PBMs as target cells, and inhibition of p24 Gag protein production by each drug was used as an end point. Numbers in parentheses represent n-fold changes of EC50s for each isolate compared to EC50s for wild-type HIV-1ERS104pre.

HIV-1MDR/JSL = format: cell-based; conditions: for EC50: Human immunodeficiency virus 1, read-out: EC50 (μM), HIV-1MDR/JSL (NSI); for n-fold change of EC50, HIV-1MDR/JSL: compared to wild-type HIV-1ERS104pre
Procedure: as §1, §2, §3

HIV-1LPV5μM = format: cell-based; conditions: for EC50: Human immunodeficiency virus 1, MT4, read-out: EC50 (μM), HIV-1LPV5 μM; for n-fold change in EC50, HIV-1LPV5 μM: compared to wild-type HIV-1NL4-3
Procedure: as §1
(§4) Numbers in parentheses represent n-fold changes in EC50s for each isolate compared to the EC50s for wild-type HIV-1NL4-3.

HIV-1AZV5μM = format: cell-based; conditions: for EC50: Human immunodeficiency virus 1, MT4, read-out: EC50 (μM), HIV-1AZV5 μM; for n-fold change in EC50, HIV-1AZV5 μM: compared to wild-type HIV-1NL4-3
Procedure: as §1, §4

HIV-1NFV5μM = format: cell-based; conditions: for EC50: Human immunodeficiency virus 1, MT4, read-out: EC50 (μM), HIV-1NPV5 μM; for n-fold change in EC50, HIV-1NPV5 μM: compared to wild-type HIV-1NL4-3
Procedure: as §1, §4

HIV-1SQV5μM = format: cell-based; conditions: for EC50: Human immunodeficiency virus 1, MT4, read-out: EC50 (μM), HIV-1SQV5 μM; for n-fold change in EC50, HIV-1SQV5 μM: compared to wild-type HIV-1NL4-3
Procedure: as §1, §4

HIV-1APV5μM = format: cell-based; conditions: for EC50: Human immunodeficiency virus 1, MT4, read-out: EC50 (μM), HIV-1APV5 μM; for n-fold change in EC50, HIV-1APV5 μM: compared to wild-type HIV-1NL4-3
Procedure: as §1, §4

HIV-1396-1μM = format: cell-based, HIV-1; conditions: for EC50: Human immunodeficiency virus 1, MT4, read-out: EC50 (μM), HIV-1396-1 μM; for n-fold change in EC50, HIV-1396-1 μM: compared to wild-type HIV-1NL4-3
Procedure: (§5) Briefly, MT-2 cells (2×10^4/ml) were exposed to 100 50% tissue culture infectious doses (TCID50S) of HIV-1LAI, in the presence or absence of various concentrations of drugs in 96-well microculture plates and were incubated at 37° C. for 7 days. After 100 μl of the medium was removed from each well, 3-(4,5-dimetylthiazol-2-yl)-2,5-diphenyltetrazolium bromide (MTT) solution (10 μl, 7.5 mg/ml in phosphate-buffered saline) was added to each well in the plate, followed by incubation at 37° C. for 3 h. […] All assays were performed in duplicate or triplicate. […] To determine the drug susceptibility of certain laboratory HIV-1 strains, MT-4 cells were used as target cells. In brief, MT-4 cells (10^5/ml) were exposed to 100 TCID50S of drug-resistant HIV-1 strains in the presence or absence of various concentrations of drugs and on day 7 of culture, the supernatant was harvested and the amounts of p24 Gag protein were determined. […] All assays were performed in duplicate or triplicate.
as §4

HIV-1286-1μM = format: cell-based, HIV-1; conditions: for EC50: Human immunodeficiency virus 1, MT4, read-out: EC50 (μM), HIV-1286-1 μM; for n-fold change in EC50, HIV-1286-1 μM: compared to wild-type HIV-1NL4-3
Procedure: as §5, §4

HIV-1216-P50 = format: cell-based, HIV-1; conditions: for EC50: Human immunodeficiency virus 1, MT4, read-out: EC50 (μM), HIV-1216-p50; for n-fold change in EC50, HIV-1216-p50: compared to wild-type HIV-1NL4-3
Procedure: as §5, §4

SMILES | EC50 (HIV-1MDR/MM) | EC50 (HIV-1MDR/JSL) | EC50 (HIV-1LPV5μM) | EC50 (HIV-1AZV5μM) | EC50 (HIV-1NFV5μM) | EC50 (HIV-1SQV5μM) | EC50 (HIV-1APV5μM) | EC50 (HIV-1396-1μM) | EC50 (HIV-1286-1μM) | EC50 (HIV-1216-P50) | n-fold change of EC50, HIV-1MDR/MM (HIV-1MDR/MM) | n-fold change of EC50, HIV-1MDR/JSL (HIV-1MDR/JSL) | n-fold change in EC50, HIV-1LPV5 μM (HIV-1LPV5μM) | n-fold change in EC50, HIV-1AZV5 μM (HIV-1AZV5μM) | n-fold change in EC50, HIV-1NPV5 μM (HIV-1NFV5μM) | n-fold change in EC50, HIV-1SQV5 μM (HIV-1SQV5μM) | n-fold change in EC50, HIV-1APV5 μM (HIV-1APV5μM) | n-fold change in EC50, HIV-1396-1 μM (HIV-1396-1μM) | n-fold change in EC50, HIV-1286-1 μM (HIV-1286-1μM) | n-fold change in EC50, HIV-1216-p50 (HIV-1216-P50)
CC(C)CN(C[C@@H](O)[C@H](Cc1ccccc1)NC(=O)O[C@H]1CCOC1)S(=O)(=O)c1ccc(N)cc1 [APV, Amprenavir] | 0.21 ± 0.222 µM | 0.62 ± 0.02 µM | 0.26 ± 0.07 µM | 0.28 ± 0.06 µM | 0.028 ± 0.005 µM | 0.18 ± 0.1 µM | > 1 µM | 0.35 ± 0.0002 µM | > 1 µM | 0.26 ± 0.03 µM | – | – | – | – | – | – | – | – | – | –
COC(=O)N[C@H](C(=O)N[C@@H](Cc1ccccc1)[C@@H](O)CN(Cc1ccc(-c2ccccn2)cc1)NC(=O)[C@@H](NC(=O)OC)C(C)(C)C)C(C)(C)C [AZV, Atazanavir] | 0.18 ± 0.021 µM | 0.43 ± 0.036 µM | 0.036 ± 0.001 µM | > 1 µM | 0.027 ± 0.005 µM | 0.21 ± 0.065 µM | 0.006 ± 0.002 µM | 0.024 ± 0.002 µM | 0.021 ± 0.012 µM | 0.014 ± 0.003 µM | (39) | (215) | (9) | > 250 | (7) | (53) | (2) | (8) | (7) | (4)
COc1ccc2c(c1)OCCCC=CCCCCN(CC(O)C(Cc1ccccc1)NC(=O)OC1COC3OCCC13)S2(=O)=O (stereo not drawn) [Compound 14b] | 0.055 ± 0.025 µM | 0.21 ± 0.032 µM | 0.35 ± 0.019 µM | 0.03 ± 0.006 µM | 0.041 ± 0.006 µM | 0.046 ± 0.021 µM | > 1 µM | 0.25 ± 0.05 µM | > 1 µM | 0.19 ± 0.06 µM | (8) | – | (39) | (3) | (5) | (5) | > 111 | (42) | > 167 | (32)
COc1ccc2c(c1)OCCC=CCCCCN(CC(O)C(Cc1ccccc1)NC(=O)OC1COC3OCCC13)S2(=O)=O (stereo not drawn) [Compound 14c] | 0.033 ± 0.01 µM | 0.073 ± 0.07 µM | 0.035 ± 0.005 µM | 0.023 ± 0.005 µM | 0.04 ± 0.017 µM | 0.02 ± 0.009 µM | > 1 µM | 0.073 ± 0.011 µM | > 1 µM | 0.094 µM | – | – | – | – | – | – | – | – | – | –
Cc1cccc(C)c1OCC(=O)N[C@@H](Cc1ccccc1)[C@@H](O)C[C@H](Cc1ccccc1)NC(=O)[C@H](C(C)C)N1CCCNC1=O [LPV, lopinavir] | > 1 µM | > 1 µM | > 1 µM | > 1 µM | 0.037 ± 0.004 µM | 0.12 ± 0.02 µM | > 1 µM | 0.28 ± 0.05 µM | > 1 µM | 0.19 ± 0.06 µM | > 29 | > 29 | > 22 | > 22 | (1) | (2) | > 22 | (6) | > 23 | (5)
CCC[C@@]1(CCc2ccccc2)CC(O)=C([C@H](CC)c2cccc(NS(=O)(=O)c3ccc(C(F)(F)F)cn3)c2)C(=O)O1 [TPV, Tipranavir] | 0.36 ± 0.06 µM | 0.23 ± 0.049 µM | 0.31 ± 0.03 µM | 0.41 ± 0.047 µM | 0.039 ± 0.041 µM | 0.022 ± 0.009 µM | 0.22 ± 0.089 µM | 0.042 ± 0.002 µM | 0.037 ± 0.001 µM | 0.029 ± 0.0004 µM | (3) | (2) | (1) | (1) | (0.1) | (0.1) | (0.7) | (0.1) | (0.1) | (0.1)
